Measurements reported in article PMC3282187 (Neuron, 2012).

Test system: neurons of the locus coeruleus (LC); mu opioid receptor-coupled K^+ channels
Format: cell-based, rat

Compound | effect on responses to uncaging stimuli | effect on residual Ba^2+-insensitive outward current
CC1(C)[C@@H](OC(=O)CCC(=O)O)CC[C@]2(C)[C@H]3C(=O)C=C4[C@@H]5C[C@@](C)(C(=O)O)CC[C@]5(C)CC[C@@]4(C)[C@]3(C)CC[C@@H]12 [carbenoxolone] | not significantly attenuated | 
Nc1ccncc1 [4-AP] |  | unable to block or occlude
ZD7288 |  | unable to block or occlude
